# According to the kinase profiling compilation of Christmann-Franck et al. (2016):
# Assays:
# PIP4K2C (human) = PIP4K2C (human) (UniProt Q8TBX8); experiment: KINOMEscan competition binding; conditions: compound 10.0 µM
# [1] = test system: FLT3 (human), P36888 [ITD]; experiment: KINOMEscan competition binding; conditions: compound 10.0 µM
# MYO3A (human) = MYO3A (human) (UniProt Q8NEV4); experiment: KINOMEscan competition binding; conditions: compound 10.0 µM
# EPHA5 (human) = EPHA5 (human) (UniProt P54756); experiment: KINOMEscan competition binding; conditions: compound 10.0 µM
# NTRK1 (human) = NTRK1 (human) (UniProt P04629); experiment: KINOMEscan competition binding; conditions: compound 10.0 µM
# RIPK2 (human) = RIPK2 (human) (UniProt O43353); experiment: KINOMEscan competition binding; conditions: compound 10.0 µM
# TAOK1 (human) = TAOK1 (human) (UniProt Q7L7X3); experiment: KINOMEscan competition binding; conditions: compound 10.0 µM
# Sequence of TAOK1 (human) (Q7L7X3 whole entry, looked up): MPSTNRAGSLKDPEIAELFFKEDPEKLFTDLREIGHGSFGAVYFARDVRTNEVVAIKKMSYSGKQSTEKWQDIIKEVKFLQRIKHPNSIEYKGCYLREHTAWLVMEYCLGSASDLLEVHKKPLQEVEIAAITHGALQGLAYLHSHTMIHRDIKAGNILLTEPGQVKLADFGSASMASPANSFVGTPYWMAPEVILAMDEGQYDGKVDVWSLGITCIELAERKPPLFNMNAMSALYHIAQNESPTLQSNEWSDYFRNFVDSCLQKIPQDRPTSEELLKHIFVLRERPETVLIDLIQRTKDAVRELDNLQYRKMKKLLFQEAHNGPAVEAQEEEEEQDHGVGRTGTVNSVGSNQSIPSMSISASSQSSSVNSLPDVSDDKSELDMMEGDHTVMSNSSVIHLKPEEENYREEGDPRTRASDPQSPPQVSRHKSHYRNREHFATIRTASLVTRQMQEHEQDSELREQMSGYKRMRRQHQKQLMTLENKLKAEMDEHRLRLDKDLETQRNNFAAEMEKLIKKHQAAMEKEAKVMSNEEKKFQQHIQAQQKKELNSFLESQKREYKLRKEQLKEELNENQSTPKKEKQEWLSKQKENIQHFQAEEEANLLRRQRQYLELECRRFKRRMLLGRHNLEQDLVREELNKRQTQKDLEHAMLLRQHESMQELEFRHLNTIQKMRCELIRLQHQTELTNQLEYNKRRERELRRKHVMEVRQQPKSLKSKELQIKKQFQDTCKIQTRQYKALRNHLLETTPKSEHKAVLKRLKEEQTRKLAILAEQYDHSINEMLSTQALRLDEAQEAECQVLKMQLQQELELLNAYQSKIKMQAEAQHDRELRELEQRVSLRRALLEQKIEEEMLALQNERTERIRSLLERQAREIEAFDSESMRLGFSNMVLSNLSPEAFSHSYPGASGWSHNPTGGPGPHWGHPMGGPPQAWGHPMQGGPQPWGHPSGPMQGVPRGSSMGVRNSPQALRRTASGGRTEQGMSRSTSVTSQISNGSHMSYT
# HIPK1 (human) = HIPK1 (human) (UniProt Q86Z02); experiment: KINOMEscan competition binding; conditions: compound 10.0 µM
# [2] = test system: FGFR3 (human), P22607 [G697C]; experiment: KINOMEscan competition binding; conditions: compound 10.0 µM
# Sequence of FGFR3 (human), P22607 [G697C] (P22607 whole entry G697C, looked up): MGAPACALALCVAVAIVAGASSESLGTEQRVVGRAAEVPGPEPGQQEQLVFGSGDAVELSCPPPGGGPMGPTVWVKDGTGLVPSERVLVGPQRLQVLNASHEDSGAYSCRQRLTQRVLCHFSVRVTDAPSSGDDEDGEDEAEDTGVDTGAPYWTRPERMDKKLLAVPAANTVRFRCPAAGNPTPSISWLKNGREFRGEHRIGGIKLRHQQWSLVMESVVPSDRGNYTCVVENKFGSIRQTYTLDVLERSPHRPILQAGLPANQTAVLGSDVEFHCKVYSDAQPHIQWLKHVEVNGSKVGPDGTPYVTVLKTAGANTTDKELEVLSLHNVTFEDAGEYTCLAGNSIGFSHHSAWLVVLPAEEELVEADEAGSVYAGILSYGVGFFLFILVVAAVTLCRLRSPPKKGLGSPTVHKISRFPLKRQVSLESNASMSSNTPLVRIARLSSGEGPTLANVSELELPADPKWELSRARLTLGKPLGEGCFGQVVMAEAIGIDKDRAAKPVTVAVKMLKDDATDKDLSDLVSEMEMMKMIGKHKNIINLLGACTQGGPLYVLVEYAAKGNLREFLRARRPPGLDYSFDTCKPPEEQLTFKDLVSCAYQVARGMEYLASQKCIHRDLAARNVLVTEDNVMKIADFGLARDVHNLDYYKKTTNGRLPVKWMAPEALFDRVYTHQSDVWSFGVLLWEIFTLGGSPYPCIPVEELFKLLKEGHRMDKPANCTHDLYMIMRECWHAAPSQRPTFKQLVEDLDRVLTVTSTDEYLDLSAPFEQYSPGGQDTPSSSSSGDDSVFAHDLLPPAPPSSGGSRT
# MKNK2 (human) = MKNK2 (human) (UniProt Q9HBH9); experiment: KINOMEscan competition binding; conditions: compound 10.0 µM
# EPHB1 (human) = EPHB1 (human) (UniProt P54762); experiment: KINOMEscan competition binding; conditions: compound 10.0 µM
# GAK (human) = GAK (human) (UniProt O14976); experiment: KINOMEscan competition binding; conditions: compound 10.0 µM
# ABL2 (human) = ABL2 (human) (UniProt P42684); experiment: KINOMEscan competition binding; conditions: compound 10.0 µM
# MAK (human) = MAK (human) (UniProt P20794); experiment: KINOMEscan competition binding; conditions: compound 10.0 µM
# DSTYK (human) = DSTYK (human) (UniProt Q6XUX3); experiment: KINOMEscan competition binding; conditions: compound 10.0 µM
# DAPK1 (human) = DAPK1 (human) (UniProt P53355); experiment: KINOMEscan competition binding; conditions: compound 10.0 µM
# MAPK1 (human) = MAPK1 (human) (UniProt P28482); experiment: KINOMEscan competition binding; conditions: compound 10.0 µM
# [3] = test system: PIK3CA (human), P42336 [E545K]; experiment: KINOMEscan competition binding; conditions: compound 10.0 µM
# NEK9 (human) = NEK9 (human) (UniProt Q8TD19); experiment: KINOMEscan competition binding; conditions: compound 10.0 µM
# KIT (human) = KIT (human) (UniProt P10721); experiment: KINOMEscan competition binding; conditions: compound 10.0 µM
# Sequence of KIT (human) (P10721 whole entry, looked up): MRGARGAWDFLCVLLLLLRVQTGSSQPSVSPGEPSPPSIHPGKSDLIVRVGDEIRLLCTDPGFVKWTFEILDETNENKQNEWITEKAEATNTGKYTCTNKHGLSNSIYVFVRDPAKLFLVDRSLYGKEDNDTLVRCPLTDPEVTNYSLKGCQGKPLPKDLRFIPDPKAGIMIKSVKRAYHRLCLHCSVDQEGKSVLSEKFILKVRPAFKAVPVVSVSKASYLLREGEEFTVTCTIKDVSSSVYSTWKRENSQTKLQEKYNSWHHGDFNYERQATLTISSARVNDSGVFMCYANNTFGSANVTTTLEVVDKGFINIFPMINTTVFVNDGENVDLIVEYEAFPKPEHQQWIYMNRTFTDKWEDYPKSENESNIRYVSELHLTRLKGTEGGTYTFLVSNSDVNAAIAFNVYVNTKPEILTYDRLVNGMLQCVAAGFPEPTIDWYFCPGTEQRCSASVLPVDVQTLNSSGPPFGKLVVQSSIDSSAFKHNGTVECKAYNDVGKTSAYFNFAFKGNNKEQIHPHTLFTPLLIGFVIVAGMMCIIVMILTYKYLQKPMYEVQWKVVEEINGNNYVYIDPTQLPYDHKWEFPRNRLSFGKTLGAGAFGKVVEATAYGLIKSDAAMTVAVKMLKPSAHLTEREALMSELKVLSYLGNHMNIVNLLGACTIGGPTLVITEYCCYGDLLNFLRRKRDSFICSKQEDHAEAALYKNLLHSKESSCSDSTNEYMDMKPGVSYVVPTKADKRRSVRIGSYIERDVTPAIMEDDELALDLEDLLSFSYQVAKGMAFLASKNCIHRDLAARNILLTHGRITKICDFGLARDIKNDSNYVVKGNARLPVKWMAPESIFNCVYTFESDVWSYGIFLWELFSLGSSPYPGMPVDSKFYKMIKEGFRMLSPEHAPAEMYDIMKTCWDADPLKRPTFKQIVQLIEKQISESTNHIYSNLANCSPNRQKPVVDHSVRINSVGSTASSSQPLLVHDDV
# BRSK2 (human) = BRSK2 (human) (UniProt Q8IWQ3); experiment: KINOMEscan competition binding; conditions: compound 10.0 µM
# STK16 (human) = STK16 (human) (UniProt O75716); experiment: KINOMEscan competition binding; conditions: compound 10.0 µM
# Sequence of STK16 (human) (O75716 whole entry, looked up): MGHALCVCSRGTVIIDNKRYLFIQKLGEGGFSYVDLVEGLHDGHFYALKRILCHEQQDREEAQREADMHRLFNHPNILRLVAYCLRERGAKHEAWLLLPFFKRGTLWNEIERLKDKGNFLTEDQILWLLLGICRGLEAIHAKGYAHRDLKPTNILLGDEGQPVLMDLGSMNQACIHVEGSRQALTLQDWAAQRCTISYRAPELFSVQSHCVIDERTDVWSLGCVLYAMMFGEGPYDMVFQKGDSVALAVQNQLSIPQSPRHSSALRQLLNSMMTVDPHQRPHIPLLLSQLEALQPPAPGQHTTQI
# PKMYT1 (human) = PKMYT1 (human) (UniProt Q99640); experiment: KINOMEscan competition binding; conditions: compound 10.0 µM
# TESK1 (human) = TESK1 (human) (UniProt Q15569); experiment: KINOMEscan competition binding; conditions: compound 10.0 µM
# NEK4 (human) = NEK4 (human) (UniProt P51957); experiment: KINOMEscan competition binding; conditions: compound 10.0 µM
# CDK5 (human) = CDK5 (human) (UniProt Q00535); experiment: KINOMEscan competition binding; conditions: compound 10.0 µM
# YSK4 (human) = YSK4 (human) (UniProt Q56UN5); experiment: KINOMEscan competition binding; conditions: compound 10.0 µM
# TYRO3 (human) = TYRO3 (human) (UniProt Q06418); experiment: KINOMEscan competition binding; conditions: compound 10.0 µM
# FGR (human) = FGR (human) (UniProt P09769); experiment: KINOMEscan competition binding; conditions: compound 10.0 µM
# [4] = test system: KIT (human), P10721 [L576P]; experiment: KINOMEscan competition binding; conditions: compound 10.0 µM
# Sequence of KIT (human), P10721 [L576P] (P10721 whole entry L576P, looked up): as the sequence (P10721 whole entry, looked up) above, with L576P counted along it
# TGFBR2 (human) = TGFBR2 (human) (UniProt P37173); experiment: KINOMEscan competition binding; conditions: compound 10.0 µM
# DAPK3 (human) = DAPK3 (human) (UniProt O43293); experiment: KINOMEscan competition binding; conditions: compound 10.0 µM
# PIK3C2B (human) = PIK3C2B (human) (UniProt O00750)
# PIK3C3 (human) = PIK3C3 (human) (UniProt Q8NEB9)
# PI4KA (human) = PI4KA (human) (UniProt P42356)
# PI4KB (human) = PI4KB (human) (UniProt Q9UBF8)
# PIK3C2A (human) = PIK3C2A (human) (UniProt O00443)
# MST4 (human) = MST4 (human) (UniProt Q9P289)
# Sequence of MST4 (human) (Q9P289 whole entry, looked up): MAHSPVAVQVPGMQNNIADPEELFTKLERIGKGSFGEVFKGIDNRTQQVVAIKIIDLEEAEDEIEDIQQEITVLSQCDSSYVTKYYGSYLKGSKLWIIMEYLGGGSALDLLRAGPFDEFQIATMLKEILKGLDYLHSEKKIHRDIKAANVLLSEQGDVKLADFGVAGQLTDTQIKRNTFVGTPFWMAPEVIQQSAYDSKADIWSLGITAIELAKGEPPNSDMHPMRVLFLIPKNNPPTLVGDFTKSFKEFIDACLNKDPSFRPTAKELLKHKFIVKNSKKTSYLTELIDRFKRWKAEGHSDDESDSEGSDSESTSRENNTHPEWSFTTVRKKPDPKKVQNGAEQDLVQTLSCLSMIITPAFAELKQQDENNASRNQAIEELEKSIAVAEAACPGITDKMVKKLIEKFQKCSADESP
# SYK (human) = SYK (human) (UniProt P43405)
# [5] = test system: SGK1 (human), O00141 [S422D]
# Sequence of SGK1 (human), O00141 [S422D] (O00141 whole entry S422D, looked up): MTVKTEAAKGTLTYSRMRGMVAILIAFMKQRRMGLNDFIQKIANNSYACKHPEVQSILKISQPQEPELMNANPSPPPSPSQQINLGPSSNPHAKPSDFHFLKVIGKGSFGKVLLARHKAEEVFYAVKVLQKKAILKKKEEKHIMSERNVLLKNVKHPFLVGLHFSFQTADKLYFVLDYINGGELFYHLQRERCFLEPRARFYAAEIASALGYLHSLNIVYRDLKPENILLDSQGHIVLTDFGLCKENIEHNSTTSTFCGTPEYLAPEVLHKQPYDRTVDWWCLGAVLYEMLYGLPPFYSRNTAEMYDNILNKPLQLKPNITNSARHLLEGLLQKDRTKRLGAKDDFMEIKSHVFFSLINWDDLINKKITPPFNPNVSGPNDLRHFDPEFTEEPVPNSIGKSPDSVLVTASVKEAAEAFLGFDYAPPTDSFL
# Sequence of FLT3 (human), P36888 [ITD] (P36888 whole entry, looked up, change not shown): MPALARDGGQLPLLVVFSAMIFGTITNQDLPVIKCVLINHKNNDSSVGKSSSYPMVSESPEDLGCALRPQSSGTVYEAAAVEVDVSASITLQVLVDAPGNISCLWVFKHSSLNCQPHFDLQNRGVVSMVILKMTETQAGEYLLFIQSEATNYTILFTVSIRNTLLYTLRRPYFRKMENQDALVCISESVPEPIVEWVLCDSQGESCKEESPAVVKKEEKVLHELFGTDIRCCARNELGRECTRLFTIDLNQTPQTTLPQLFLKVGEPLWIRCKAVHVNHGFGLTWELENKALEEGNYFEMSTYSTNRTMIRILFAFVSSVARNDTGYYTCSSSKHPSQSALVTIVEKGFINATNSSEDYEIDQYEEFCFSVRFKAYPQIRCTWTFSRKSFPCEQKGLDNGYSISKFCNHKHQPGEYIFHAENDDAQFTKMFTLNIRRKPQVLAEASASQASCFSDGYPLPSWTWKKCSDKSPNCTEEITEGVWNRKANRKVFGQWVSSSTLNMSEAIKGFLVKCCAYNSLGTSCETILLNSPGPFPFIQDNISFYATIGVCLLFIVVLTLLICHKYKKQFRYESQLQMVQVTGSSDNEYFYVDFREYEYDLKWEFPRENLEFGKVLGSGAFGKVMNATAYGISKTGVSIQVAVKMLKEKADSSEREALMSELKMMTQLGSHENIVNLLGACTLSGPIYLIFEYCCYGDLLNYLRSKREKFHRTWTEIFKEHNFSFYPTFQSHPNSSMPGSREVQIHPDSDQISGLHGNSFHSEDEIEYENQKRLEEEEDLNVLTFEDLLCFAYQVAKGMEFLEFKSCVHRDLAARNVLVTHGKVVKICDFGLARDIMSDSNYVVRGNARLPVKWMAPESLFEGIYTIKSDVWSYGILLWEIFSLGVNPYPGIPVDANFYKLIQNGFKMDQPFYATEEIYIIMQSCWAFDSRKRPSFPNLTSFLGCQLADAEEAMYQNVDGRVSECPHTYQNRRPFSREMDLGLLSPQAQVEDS
smiles,measurement,setting,value
COc1ccc(-c2ccc3c(N4CCOCC4)nc(N4C[C@@H](C)O[C@@H](C)C4)nc3n2)cc1CO,"kinase still bound, per cent of control",PIP4K2C (human),87%
same,"kinase still bound, per cent of control",[1],100%
same,"kinase still bound, per cent of control",MYO3A (human),97%
same,"kinase still bound, per cent of control",EPHA5 (human),94%
same,"kinase still bound, per cent of control",NTRK1 (human),72%
same,"kinase still bound, per cent of control",RIPK2 (human),100%
same,"kinase still bound, per cent of control",TAOK1 (human),83%
same,"kinase still bound, per cent of control",HIPK1 (human),97%
same,"kinase still bound, per cent of control",[2],77%
same,"kinase still bound, per cent of control",MKNK2 (human),75%
same,"kinase still bound, per cent of control",EPHB1 (human),100%
same,"kinase still bound, per cent of control",GAK (human),95%
same,"kinase still bound, per cent of control",ABL2 (human),95%
same,"kinase still bound, per cent of control",MAK (human),100%
same,"kinase still bound, per cent of control",DSTYK (human),78%
same,"kinase still bound, per cent of control",DAPK1 (human),95%
same,"kinase still bound, per cent of control",MAPK1 (human),100%
same,"kinase still bound, per cent of control",[3],2%
same,"kinase still bound, per cent of control",NEK9 (human),89%
same,"kinase still bound, per cent of control",KIT (human),87%
same,"kinase still bound, per cent of control",BRSK2 (human),98%
same,"kinase still bound, per cent of control",STK16 (human),93%
same,"kinase still bound, per cent of control",PKMYT1 (human),84%
same,"kinase still bound, per cent of control",TESK1 (human),98%
same,"kinase still bound, per cent of control",NEK4 (human),76%
same,per cent of control,CDK5 (human),100%
same,"kinase still bound, per cent of control",YSK4 (human),100%
same,"kinase still bound, per cent of control",TYRO3 (human),100%
same,"kinase still bound, per cent of control",FGR (human),100%
same,"kinase still bound, per cent of control",[4],93%
same,"kinase still bound, per cent of control",TGFBR2 (human),92%
same,"kinase still bound, per cent of control",DAPK3 (human),89%
same,IC50,PIK3C2B (human),> 10 µM
same,IC50,PIK3C3 (human),> 10 µM
same,IC50,PI4KA (human),> 10 µM
same,IC50,PI4KB (human),> 10 µM
same,IC50,PIK3C2A (human),> 10 µM
same,per cent of control,MST4 (human); compound 1.0 µM,87%
same,per cent of control,MST4 (human); compound 10.0 µM,86%
same,per cent of control,SYK (human); compound 1.0 µM,88%
same,per cent of control,SYK (human); compound 10.0 µM,83%
same,per cent of control,[5]; compound 1.0 µM,76%
same,per cent of control,[5]; compound 10.0 µM,64%
